Laboratory results taken from PubChem BioAssay (NCI).
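Method: 48-hour compound exposure of cells in 96-well plates, five concentrations, linear interpolation of endpoints. TGI: concentration producing complete growth inhibition.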

Legend:
Test in all cases: NCI-60 cell line screen, 48 h
A498 renal = system: A498 renal
A549 NSCLC = system: A549 NSCLC
ACHN renal = system: ACHN renal
BT-549 breast = system: BT-549 breast
CAKI-1 renal = system: CAKI-1 renal
CCRF-CEM leukemia = system: CCRF-CEM leukemia
COLO 205 colon = system: COLO 205 colon
DU-145 prostate = system: DU-145 prostate
HCT-15 colon = system: HCT-15 colon
HL-60(TB) leukemia = system: HL-60(TB) leukemia
HOP-62 NSCLC = system: HOP-62 NSCLC
HOP-92 NSCLC = system: HOP-92 NSCLC
HS 578T breast = system: HS 578T breast
HT29 colon = system: HT29 colon
IGROV1 ovarian = system: IGROV1 ovarian
K-562 leukemia = system: K-562 leukemia
KM12 colon = system: KM12 colon
LOX IMVI melanoma = system: LOX IMVI melanoma
M14 melanoma = system: M14 melanoma
MALME-3M melanoma = system: MALME-3M melanoma
MCF7 breast = system: MCF7 breast
MDA-MB-231 breast = system: MDA-MB-231 breast
MDA-MB-435 = system: MDA-MB-435
MDA-N = system: MDA-N
MOLT-4 leukemia = system: MOLT-4 leukemia
NCI-H23 lung = system: NCI-H23 lung
NCI-H460 lung = system: NCI-H460 lung
NCI-H522 lung = system: NCI-H522 lung
NCI/ADR-RES ovarian = system: NCI/ADR-RES ovarian
OVCAR-3 ovarian = system: OVCAR-3 ovarian
OVCAR-4 ovarian = system: OVCAR-4 ovarian
OVCAR-5 ovarian = system: OVCAR-5 ovarian
OVCAR-8 ovarian = system: OVCAR-8 ovarian
PC-3 prostate = system: PC-3 prostate
RPMI-8226 leukemia = system: RPMI-8226 leukemia
SF-268 CNS = system: SF-268 CNS
SF-295 CNS = system: SF-295 CNS
SF-539 CNS = system: SF-539 CNS
SK-MEL-2 melanoma = system: SK-MEL-2 melanoma
SK-MEL-28 melanoma = system: SK-MEL-28 melanoma
SK-MEL-5 melanoma = system: SK-MEL-5 melanoma
SK-OV-3 ovarian = system: SK-OV-3 ovarian
SN12C renal = system: SN12C renal
SNB-19 CNS = system: SNB-19 CNS
SNB-75 CNS = system: SNB-75 CNS
SR leukemia = system: SR leukemia
SW-620 colon = system: SW-620 colon
T-47D breast = system: T-47D breast
TK-10 renal = system: TK-10 renal
U251 CNS = system: U251 CNS
UACC-257 melanoma = system: UACC-257 melanoma
UACC-62 melanoma = system: UACC-62 melanoma
UO-31 renal = system: UO-31 renal
786-0 renal = system: 786-0 renal
EKVX NSCLC = system: EKVX NSCLC
HCC-2998 colon = system: HCC-2998 colon
HCT-116 colon = system: HCT-116 colon
NCI-H226 lung = system: NCI-H226 lung
RXF 393 renal = system: RXF 393 renal

For `O=C(Cc1nc2cccnc2nc1/C=C(\O)c1ccccc1)c1ccccc1`, the TGI (A498 renal) was 74 µM, the TGI (A549 NSCLC) was greater than 100 µM and the TGI (ACHN renal) was greater than 100 µM. It also gave a TGI (BT-549 breast) of 38.4 µM, a TGI (CAKI-1 renal) of 30.5 µM and a TGI (CCRF-CEM leukemia) of 29.9 µM. For the same compound, the TGI (COLO 205 colon) was 25.1 µM, the TGI (DU-145 prostate) was greater than 100 µM and the TGI (HCT-15 colon) was greater than 100 µM. The TGI (HL-60(TB) leukemia) was 66.6 µM, the TGI (HOP-62 NSCLC) was 58.4 µM and the TGI (HOP-92 NSCLC) was 59 µM. It also gave a TGI (HS 578T breast) greater than 100 µM, a TGI (HT29 colon) greater than 100 µM and a TGI (IGROV1 ovarian) greater than 100 µM. For the same compound, the TGI (K-562 leukemia) was greater than 100 µM, the TGI (KM12 colon) was greater than 100 µM and the TGI (LOX IMVI melanoma) was 87 µM. It also gave a TGI (M14 melanoma) greater than 100 µM, a TGI (MALME-3M melanoma) greater than 100 µM and a TGI (MCF7 breast) of 27.6 µM. It also gave a TGI (MDA-MB-231 breast) greater than 100 µM, a TGI (MDA-MB-435) of 82 µM and a TGI (MDA-N) greater than 100 µM. It also gave a TGI (MOLT-4 leukemia) greater than 100 µM, a TGI (NCI-H23 lung) greater than 100 µM and a TGI (NCI-H460 lung) of 22.7 µM. It also gave a TGI (NCI-H522 lung) of 35.6 µM, a TGI (NCI/ADR-RES ovarian) greater than 100 µM and a TGI (OVCAR-3 ovarian) of 13.3 µM. It also gave a TGI (OVCAR-4 ovarian) greater than 100 µM, a TGI (OVCAR-5 ovarian) greater than 100 µM and a TGI (OVCAR-8 ovarian) greater than 100 µM. The TGI (PC-3 prostate) was greater than 100 µM, the TGI (RPMI-8226 leukemia) was 29 µM and the TGI (SF-268 CNS) was 46 µM. The TGI (SF-295 CNS) was 82.1 µM, the TGI (SF-539 CNS) was greater than 100 µM and the TGI (SK-MEL-2 melanoma) was 65.4 µM. For the same compound, the TGI (SK-MEL-28 melanoma) was greater than 100 µM, the TGI (SK-MEL-5 melanoma) was 38 µM and the TGI (SK-OV-3 ovarian) was greater than 100 µM. It also gave a TGI (SN12C renal) of 59.1 µM, a TGI (SNB-19 CNS) greater than 100 µM and a TGI (SNB-75 CNS) of 96.4 µM. For the same compound, the TGI (SR leukemia) was greater than 100 µM, the TGI (SW-620 colon) was greater than 100 µM and the TGI (T-47D breast) was greater than 100 µM. For the same compound, the TGI (TK-10 renal) was greater than 100 µM, the TGI (U251 CNS) was greater than 100 µM and the TGI (UACC-257 melanoma) was greater than 100 µM. The TGI (UACC-62 melanoma) was 18.6 µM and the TGI (UO-31 renal) was 79.6 µM.

Compound `O=C1/C(=C/c2ccc(Cl)cc2)CCC/C1=C\c1ccc(O)c(CN2CCCCC2)c1` has a TGI (786-0 renal) of 34.5 µM, a TGI (A498 renal) of 30 µM and a TGI (A549 NSCLC) greater than 100 µM. The TGI (ACHN renal) was 30.7 µM, the TGI (BT-549 breast) was 31 µM and the TGI (CAKI-1 renal) was 40.2 µM. It also gave a TGI (CCRF-CEM leukemia) of 35 µM, a TGI (COLO 205 colon) of 59.3 µM and a TGI (DU-145 prostate) of 36.9 µM. For the same compound, the TGI (EKVX NSCLC) was 40.7 µM, the TGI (HCC-2998 colon) was 38.7 µM and the TGI (HCT-116 colon) was 33.5 µM. It also gave a TGI (HCT-15 colon) of 27.2 µM, a TGI (HL-60(TB) leukemia) of 7.25 µM and a TGI (HOP-62 NSCLC) greater than 100 µM. For the same compound, the TGI (HOP-92 NSCLC) was 42.1 µM, the TGI (HS 578T breast) was 46 µM and the TGI (HT29 colon) was 17.5 µM. For the same compound, the TGI (IGROV1 ovarian) was 44 µM, the TGI (K-562 leukemia) was 66.1 µM and the TGI (KM12 colon) was 16.7 µM. For the same compound, the TGI (LOX IMVI melanoma) was 42.5 µM, the TGI (M14 melanoma) was 49.3 µM and the TGI (MALME-3M melanoma) was 59.1 µM. For the same compound, the TGI (MCF7 breast) was greater than 100 µM, the TGI (MDA-MB-231 breast) was 63.6 µM and the TGI (MDA-MB-435) was greater than 100 µM. The TGI (MDA-N) was greater than 100 µM, the TGI (MOLT-4 leukemia) was 69.4 µM and the TGI (NCI-H226 lung) was 35.5 µM. The TGI (NCI-H23 lung) was 49.1 µM, the TGI (NCI-H460 lung) was 94.3 µM and the TGI (NCI/ADR-RES ovarian) was 51.8 µM. It also gave a TGI (OVCAR-3 ovarian) of 87.5 µM, a TGI (OVCAR-4 ovarian) of 44.2 µM and a TGI (OVCAR-5 ovarian) of 50.4 µM. For the same compound, the TGI (OVCAR-8 ovarian) was 48.8 µM, the TGI (PC-3 prostate) was greater than 100 µM and the TGI (SF-295 CNS) was 43.3 µM. The TGI (SF-539 CNS) was 58.3 µM, the TGI (SK-MEL-2 melanoma) was greater than 100 µM and the TGI (SK-MEL-28 melanoma) was 62.6 µM. For the same compound, the TGI (SK-MEL-5 melanoma) was 35.3 µM, the TGI (SK-OV-3 ovarian) was 89.5 µM and the TGI (SN12C renal) was 87.8 µM. It also gave a TGI (SNB-19 CNS) greater than 100 µM, a TGI (SNB-75 CNS) greater than 100 µM and a TGI (SR leukemia) of 9.67 µM. For the same compound, the TGI (SW-620 colon) was greater than 100 µM, the TGI (T-47D breast) was 63.5 µM and the TGI (TK-10 renal) was 79.2 µM. The TGI (U251 CNS) was 57.1 µM, the TGI (UACC-257 melanoma) was 90.7 µM and the TGI (UACC-62 melanoma) was 36 µM. The TGI (UO-31 renal) was 31.5 µM.

`O=S(=O)(Cc1nc2ccccc2s1)c1nc2ccccc2s1` gave a TGI (786-0 renal) of 34.1 µM, a TGI (A498 renal) of 38.6 µM and a TGI (A549 NSCLC) of 95 µM. The TGI (ACHN renal) was 33 µM, the TGI (BT-549 breast) was 34.1 µM and the TGI (CCRF-CEM leukemia) was 23.7 µM. It also gave a TGI (COLO 205 colon) of 33.4 µM, a TGI (DU-145 prostate) of 32 µM and a TGI (EKVX NSCLC) of 46.2 µM. It also gave a TGI (HCC-2998 colon) of 30.2 µM, a TGI (HCT-116 colon) of 27 µM and a TGI (HCT-15 colon) of 32 µM. The TGI (HL-60(TB) leukemia) was 24.2 µM, the TGI (HOP-62 NSCLC) was greater than 100 µM and the TGI (HOP-92 NSCLC) was 28.1 µM. For the same compound, the TGI (HS 578T breast) was 79.3 µM, the TGI (HT29 colon) was 37.5 µM and the TGI (IGROV1 ovarian) was 39.6 µM. For the same compound, the TGI (K-562 leukemia) was 32.2 µM, the TGI (KM12 colon) was 35.4 µM and the TGI (LOX IMVI melanoma) was 25.6 µM. The TGI (M14 melanoma) was 30.5 µM, the TGI (MALME-3M melanoma) was 24.9 µM and the TGI (MCF7 breast) was 37.1 µM. The TGI (MDA-MB-231 breast) was 34 µM, the TGI (MDA-MB-435) was 34.4 µM and the TGI (MDA-N) was 39.5 µM. It also gave a TGI (MOLT-4 leukemia) of 39.9 µM, a TGI (NCI-H226 lung) of 65.6 µM and a TGI (NCI-H23 lung) of 38.9 µM. It also gave a TGI (NCI-H460 lung) greater than 100 µM, a TGI (NCI-H522 lung) of 33.9 µM and a TGI (NCI/ADR-RES ovarian) greater than 100 µM. For the same compound, the TGI (OVCAR-3 ovarian) was 28.1 µM, the TGI (OVCAR-4 ovarian) was 31.4 µM and the TGI (OVCAR-5 ovarian) was 39.4 µM. It also gave a TGI (OVCAR-8 ovarian) of 55.7 µM, a TGI (PC-3 prostate) of 32.6 µM and a TGI (RPMI-8226 leukemia) of 37 µM. The TGI (RXF 393 renal) was 59.6 µM, the TGI (SF-268 CNS) was 42.2 µM and the TGI (SF-295 CNS) was 64.2 µM. The TGI (SF-539 CNS) was 43.7 µM, the TGI (SK-MEL-2 melanoma) was 37.7 µM and the TGI (SK-MEL-28 melanoma) was 30.5 µM. For the same compound, the TGI (SK-MEL-5 melanoma) was 25.6 µM, the TGI (SK-OV-3 ovarian) was greater than 100 µM and the TGI (SN12C renal) was 35.2 µM. For the same compound, the TGI (SNB-19 CNS) was 44 µM, the TGI (SNB-75 CNS) was 41.3 µM and the TGI (SR leukemia) was 21 µM. The TGI (SW-620 colon) was 34.6 µM, the TGI (T-47D breast) was 53.6 µM and the TGI (TK-10 renal) was 35.7 µM. For the same compound, the TGI (U251 CNS) was 34.9 µM, the TGI (UACC-257 melanoma) was 41.8 µM and the TGI (UACC-62 melanoma) was 44.2 µM. It also gave a TGI (UO-31 renal) of 31.4 µM.
